Assay results from publication PMC8828861 (Communications Biology, 2022).

What was measured:
[1] = target: M. tuberculosis Rho (MtbRho) (Mycobacterium tuberculosis, UniProt P9WHF3); type: binding
[2] = target: the molecule itself; experiment: SEC-MALS

Chain of M. tuberculosis Rho (MtbRho) (P9WHF3 whole entry): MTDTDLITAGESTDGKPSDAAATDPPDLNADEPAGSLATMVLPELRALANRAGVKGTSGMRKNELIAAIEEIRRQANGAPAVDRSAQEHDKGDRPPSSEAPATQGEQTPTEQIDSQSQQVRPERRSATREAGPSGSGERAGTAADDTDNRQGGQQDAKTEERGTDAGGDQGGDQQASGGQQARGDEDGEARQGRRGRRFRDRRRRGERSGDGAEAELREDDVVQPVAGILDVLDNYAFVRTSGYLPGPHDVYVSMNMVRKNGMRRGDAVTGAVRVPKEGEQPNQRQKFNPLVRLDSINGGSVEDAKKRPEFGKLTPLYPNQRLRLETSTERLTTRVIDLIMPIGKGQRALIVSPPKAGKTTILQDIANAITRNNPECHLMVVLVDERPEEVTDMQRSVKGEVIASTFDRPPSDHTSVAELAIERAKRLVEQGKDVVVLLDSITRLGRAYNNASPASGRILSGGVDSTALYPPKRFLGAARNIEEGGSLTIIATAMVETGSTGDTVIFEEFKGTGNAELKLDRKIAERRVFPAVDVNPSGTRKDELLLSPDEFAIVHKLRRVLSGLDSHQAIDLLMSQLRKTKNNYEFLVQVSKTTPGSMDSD

| Molecule | cryo-EM structure, 3.3 Å, 6 ATP per hexamer [1] | stoichiometry N [2] |
| --- | --- | --- |
| Nc1ncnc2c1ncn2[C@@H]1O[C@H](COP(=O)(O)OP(=O)(O)OP(=O)(O)O)[C@@H](O)[C@H]1O [ATP] | clear electron density in all the ATPase pockets of MtbRho reveals that ATP ligands are held by a network |  |
| Mycobacterium tuberculosis transcription termination factor Rho (enzyme, also called MtbRho; WT MtbRho) TDTDLITAGESTDGKPSDAAATDPPDLNADEPAGSLATMVLPELRALANRAGVKGTSGMRKNELIAAIEEIRRQANGAPAVDRSAQEHDKGDRPPSSEAPATQGEQTPTEQIDSQSQQVRPERRSATREAGPSGSGERAGTAADDTDNRQGGQQDAKTEERGTDAGGDQGGDQQASGGQQARGDEDGEARQGRRGRRFRDRRRRGERSGDGAEAELREDDVVQPVAGILDVLDNYAFVRTSGYLPGPHDVYVSMNMVRKNGMRRGDAVTGAVRVPKEGEQPNQRQKFNPLVRLDSINGGSVEDAKKRPEFGKLTPLYPNQRLRLETSTERLTTRVIDLIMPIGKGQRALIVSPPKAGKTTILQDIANAITRNNPECHLMVVLVDERPEEVTDMQRSVKGEVIASTFDRPPSDHTSVAELAIERAKRLVEQGKDVVVLLDSITRLGRAYNNASPASGRILSGGVDSTALYPPKRFLGAARNIEEGGSLTIIATAMVETGSTGDTVIFEEFKGTGNAELKLDRKIAERRVFPAVDVNPSGTRKDELLLSPDEFAIVHKLRRVLSGLDSHQAIDLLMSQLRKTKNNYEFLVQVSKTTPGSMDSD |  | 6 |
